Measurements reported in publication PMC11117661, “Development of a Novel In Silico Classification Model to Assess Reactive Metabolite Formation in the Cysteine Trapping Assay and Investigation of Important Substructures” (Biomolecules, 2024).

Test: not given
Conditions: human, 2 h, 20 µM, pH 7.4

With `Nc1c2c(nc3ccccc13)CCCC2` [Tacrine] the RI integrated area was 243.5 count.

Test: cysteine trapping assay ([35S]cysteine, HPLC with radiomatic detector) for reactive metabolites
Conditions: human liver microsome 2 mg/mL, L-[35S]-Cysteine, NADPH, 37 °C, 2 h
Method: The reagents for making the reaction solution were phosphate buffer (pH 7.4; 100 mM), ethylenediaminetetraacetic acid (EDTA; 1 mM) (Tokyo Kasei, Tokyo, Japan), MgCl2 hexahydrate (Fuji Film Wako Co., Ltd., Osaka, Japan, reagent special grade; 3 mM), glucose-6-phosphate (G6P; 5 mM) (Roche, Basel, Switzerland), G6P dehydrogenase (G6PDH; 1 IU) (Oriental Yeast Co., Ltd., Tokyo, Japan), human liver microsome solution (Xenotech, Kansas City, MO, USA; 2 mg/mL), and L-[35S]-Cysteine (PerkinElmer Japan Co., Ltd., Kanagawa, Japan; 3.7 MBq/mL), which were prepared using ultrapure water. The evaluation compound was dissolved in dimethyl sulfoxide (DMSO) and its concentration was adjusted to 4 mM. This was used as a substrate solution.
On ice, 239 µL of the reaction solution was dispensed into a glass tube and then 1.25 µL of the substrate solution was added, mixed, and placed in a water bath (PERSONAL-11, Taitec Co., Ltd., Saitama, Japan) at 37 °C. After pre-incubation for 5 min, 10 µL of 25 mM nicotinamide adenine dinucleotide phosphate (NADPH) (Roche, Basel, Switzerland) solution was added and mixed to a final concentration of 20 µM to initiate a metabolic reaction and incubated in a water bath at 37 °C for 2 h. After incubation, 500 µL of acetonitrile was added and mixed, and the tube was chilled on ice to deproteinize, after which 50 µL of 250 mM GSH solution was added and mixed to stop the reaction, and centrifuged (approximately 1500× g, 4°C, 10 min, CF16RXII, Hitachi, Ltd., Tokyo, Japan). After centrifugation, 750 µL of the supernatant was transferred to a new glass tube and concentrated by vacufugation (VC-96N, Taitec Co., Ltd., Saitama, Japan) for 2 h. After concentrating the solution, we added 100 µL of the redissolving solution (40% methanol solution), mixed it with a vortex (IS-MBI minimixer, Ikeda Rika Co., Ltd., Tokyo, Japan) to redissolve, and then the sample was placed in a filter tube [Merck Millipore, Darmstadt, Germany] and centrifuged (approximately 5000× g, room temperature, 10 min).
Both High Performance Liquid Chromatography (HPLC) (Nexera XR, Shimadzu Corporation, Kyoto, Japan) and a radiomatic detector (Radiomatic 610TR, PerkinElmer Japan Co., Ltd.) were used to analyze the prepared samples. The 35S content was detected by running the separated sample via the 45-min analytical method through a radiomatic detector. The mobile phase was composed of a gradient of 0.1% (v/v) formic acid/water and 0.1% (v/v) formic acid/acetonitrile, and the chromatographic separation was performed using a column (Synergi 4 μm Hydro-RP 80A 150 × 3.00 mm, Phenomenex, Torrance, CA, USA).
Considering this, the amount of covalent binding in microsomes in the in vitro covalent binding test of 50 pmol/g or more was judged as a risk. The threshold of the total RI integrated area in cysteine trapping at that time was about 1000 counts. Therefore, we labeled compounds with more than 1000 counts of RI integrated area as positive, and those with less than 1000 counts as negative.

First: CCc1ccc(CCOc2ccc(CC3SC(=O)NC3=O)cc2)nc1 (stereo not shown) [Pioglitazone]
Second: CN(CCOc1ccc(CC2SC(=O)NC2=O)cc1)c1ccccn1 (stereo not shown) [Rosiglitazone]
The RI integrated area of the first is lower: 105.8 count for the first, 1593.7 count for the second.

First: NC(=O)N1c2ccccc2C=Cc2ccccc21 [Carbamazepine]
Second: O=C1NC(=O)C(c2ccccc2)(c2ccccc2)N1 [Phenytoin]
The RI integrated area of the first is higher: 61.8 count for the first, 34.7 count for the second.

Compared with `CCc1oc2ccccc2c1C(=O)c1cc(Br)c(O)c(Br)c1` [Benzbromarone], `O=C(O)Cc1ccccc1Nc1c(Cl)cccc1Cl` [Diclofenac] is lower in RI integrated area: 4516.4 count for the first, 1230.1 count for the second.

Compared with `Cc1cc(CC(=O)O)n(C)c1C(=O)c1ccc(Cl)cc1` [Zomepirac], `COc1ccc2c(c1)c(CC(=O)O)c(C)n2C(=O)c1ccc(Cl)cc1` [Indomethacin] is lower in RI integrated area: 217.5 count for the first, 89.0 count for the second.

Compared with `CC(C)NCC(O)COc1cccc2ccccc12` (stereo not shown) [Propranolol], `CNCCC(Oc1ccc(C(F)(F)F)cc1)c1ccccc1` (stereo not shown) [Fluoxetine] is lower in RI integrated area: 3667.2 count for the first, 153.8 count for the second.

First: CCN(CC)Cc1cc(Nc2ccnc3cc(Cl)ccc23)ccc1O [Amodiaquine]
Second: COc1cc(C(=O)NS(=O)(=O)c2ccccc2C)ccc1Cc1cn(C)c2ccc(NC(=O)OC3CCCC3)cc12 [Zafirlukast]
The RI integrated area of the first is higher: 346.7 count for the first, 263.4 count for the second.

Going from `CC(C)c1nc(CN(C)C(=O)N[C@H](C(=O)N[C@@H](Cc2ccccc2)C[C@H](O)[C@H](Cc2ccccc2)NC(=O)OCc2cncs2)C(C)C)cs1` [Ritonavir] to `CC/C(=C(\c1ccccc1)c1ccc(OCCN(C)C)cc1)c1ccccc1` [Tamoxifen], the RI integrated area falls from 593.9 count to 162.1 count.

Going from `COC(=O)[C@H](c1ccccc1Cl)N1CCc2sccc2C1` [Clopidogrel] to `O=C(O)COc1ccc(C(=O)c2cccs2)c(Cl)c1Cl` [Tienilic acid], the RI integrated area rises from 708.2 count to 3783.7 count.

Going from `CC(C)C(=O)Nc1ccc([N+](=O)[O-])c(C(F)(F)F)c1` [Flutamide] to `Cc1c(C)c2c(c(C)c1O)CCC(C)(COc1ccc(CC3SC(=O)NC3=O)cc1)O2` (stereo not shown) [Troglitazone], the RI integrated area falls from 680.4 count to 521.7 count.

Compared with `Cc1c(N(C)C)c(=O)n(-c2ccccc2)n1C` [Aminopyrine], `Cn1c(=O)c2c(ncn2C)n(C)c1=O` [Caffeine] is lower in RI integrated area: 44.3 count for the first, 22.4 count for the second.

First: C[C@H]1COc2c(N3CCN(C)CC3)c(F)cc3c(=O)c(C(=O)O)cn1c23 [Levofloxacin]
Second: CC[C@H](C)C(=O)O[C@H]1C[C@H](O)C=C2C=C[C@H](C)[C@H](CC[C@@H](O)C[C@@H](O)CC(=O)O)[C@H]21 [Pravastatin]
The RI integrated area of the first is higher: 150.3 count for the first, 25.4 count for the second.

Same assay, conditions: threshold area 1000

For `CCc1ccc(CCOc2ccc(CC3SC(=O)NC3=O)cc2)nc1` (stereo not shown) [Pioglitazone], the “outcome in the cysteine trapping assay” value was “negative”.
For `Cc1c(C)c2c(c(C)c1O)CCC(C)(COc1ccc(CC3SC(=O)NC3=O)cc1)O2` (stereo not shown) [Troglitazone], the “outcome in the cysteine trapping assay” value was “negative”.
